No end group written: not given here.
Molecular target: T1, recombinant Factor XIII (rFXIIIa) (Homo sapiens, UniProt P00488)
T1 construct: made in house
T1 sequence (P00488 39-732 limits assumed): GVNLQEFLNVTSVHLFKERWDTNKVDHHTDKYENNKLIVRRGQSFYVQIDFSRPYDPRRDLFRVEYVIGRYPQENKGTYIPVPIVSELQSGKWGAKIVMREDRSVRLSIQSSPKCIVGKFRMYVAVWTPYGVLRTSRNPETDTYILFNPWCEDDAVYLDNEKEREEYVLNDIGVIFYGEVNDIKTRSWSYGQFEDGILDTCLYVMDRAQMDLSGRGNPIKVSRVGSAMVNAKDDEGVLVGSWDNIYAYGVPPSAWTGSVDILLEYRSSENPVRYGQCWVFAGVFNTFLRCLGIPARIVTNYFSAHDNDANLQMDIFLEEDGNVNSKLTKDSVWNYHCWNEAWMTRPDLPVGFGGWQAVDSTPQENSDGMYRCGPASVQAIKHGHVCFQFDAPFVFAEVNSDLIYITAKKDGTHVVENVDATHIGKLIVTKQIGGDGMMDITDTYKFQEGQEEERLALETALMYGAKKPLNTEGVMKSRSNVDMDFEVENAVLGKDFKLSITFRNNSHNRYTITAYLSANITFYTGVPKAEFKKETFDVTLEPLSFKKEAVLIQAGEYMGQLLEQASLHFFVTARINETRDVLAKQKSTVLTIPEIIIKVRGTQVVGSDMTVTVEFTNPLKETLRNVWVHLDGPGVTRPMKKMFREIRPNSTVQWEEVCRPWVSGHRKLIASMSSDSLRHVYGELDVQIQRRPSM
Test: Factor XIII cross-linking assay of test polypeptide substrates (HPLC area % vs time)
Assay type: biochemical
Settings: for Monomer Consumption d[S]/dt (rate of substrate utilization) / Crosslinking d(2[S-])/dt (rate of monomer incorporation into dimers) / Hydrolysis d[-NH3]/dt (hydrolysis = deamidation): initial rate, 2mM substrate, 40 ug/ml rFXIIIa (preactivated), 2.0 U/ml Thrombin, 2.5 mM CaCl2, pH 7.4; for Monomer Consumption d[S]/dt (rate of substrate utilization): 125 mM NaCl, 50 mM TrisHCl; for Hydrolysis %: share of hydrolysis (deamidation) relative to hydrolysis plus crosslinking, same reaction conditions
Experimental: Polypeptides are screened for the ability to form transglutaminase-catalyzed cross-links using a cross-linking assay as described in more detail below. […] Each reaction receives 50 mM CaCl2 to a final concentration of 2.5 mM. A negative control for each test substrate is also prepared in which the reaction lacks a transglutaminase (e.g., Factor XIII). A positive control of the fibrinogen polypeptide (The-Ile-Gly-Glu-Gly-Gln-Gln-His-His-Leu-[…]-Gln-Ala-Gly-Asp-Val) is used for each set of reactions. The reactions are initiated by the addition of 40 μg/ml of transglutaminase (e.g., recombinant Factor XIII) followed by 0.1 unit of bovine thrombin (Enzyme Research Laboratories, Inc., South Bend, Ind.) to each solution, except the negative controls. The reactions are incubated in a 37° C. water bath. A time course of 10 μl samples are taken from each reaction at 0 minutes, 30 minutes, 60 minutes, 120 minutes and overnight. The reactions are stopped by boiling for one minute. After the reactions are terminated, each sample is diluted to 50 μl with 40 μl of TBS buffer (120 mM NaCl, 50 mM Tris (pH 7.6)) and the samples are prepared for HPLC analysis.
Each sample is chromatographed on a C-18 reverse phase HPLC column (Vydac, Hesperia, Calif. or the like) using a gradient of 0-40% B in 30 minutes (Solvent A: 0.05% trifluoroacetic acid (TFA) in water and Solvent B: 0.045% TFA in 80% acetonitrile, 20% water) on a Hewlett Packard 1090 Series II HPLC or the like. The signal is detected at a wavelength of 215 nm. The area % of each reaction product is collected and plotted versus time to determine the rates of polypeptide utilization dimer formation and multimer formation. A deamidation ratio is determined by dividing the deamidation rate by the dimerization rate.
The ability of the test polypeptides to form Factor XIII-induced multimers, and the susceptibility of the polypeptides to deamidation were assessed using the method described in detail below.
Approximately 0.5 mg of lyophilized polypeptide was dissolved in 50 mM Tris, 125 mM NaCl (pH 7.6) to give a final concentration of 2 mM by weight. […] Each test polypeptide solution received 50 mM CaCl2 to a final concentration of 2.5 mM. For each reaction, a negative control lacking Factor XIII was included. A positive control of the fibrinogen polypeptide Thr-Ile-Gly-Glu-Gly-Gln-Gln-His-His-Leu-Gly-Gly-Ala-Lys-Gln-Ala-Gly-Asp-Val was used for each set of reactions. The reactions were initiated by the addition of 40 μg/ml of recombinant Factor XIII followed by 0.1 unit of bovine thrombin (Enzyme Research Laboratories, Inc.) to each solution, except the negative controls. The reactions were incubated in a 37° C. water bath. Samples of 10 μl were taken from each reaction at 0 minutes, 30 minutes, 60 minutes, 120 minutes and overnight. The reactions were stopped by boiling for one minutes. The samples were diluted to 50 μl TBS buffer (120 mM NaCl, 50 mM Tris (pH 7.6)), and the samples were prepared for HPLC analysis.
Each reaction was chromatographed on a C-18 reverse phase HPLC column (Vydac, Hesperia, Calif., or the like) using a gradient of 0-40% B in 30 minutes (solvent A: 0.05% TFA in water and Solvent B: 0.045% TFA in 80% acetonitrile/20% water) on a Hewlett Packard 1090 Series II HPLC. The signal was detected at a wavelength of 215 nm. The area % of each reaction product was collected and plotted versus time to determine the rates of polypeptide utilization and dimer formation. A deamidation ratio was determined by dividing the deamidation rate by the dimerization rate. […] The abbreviations used in Table 1 are as follows: d[S]/dt indicates the rate of substrate utilization, d[S2 ]/dt indicates the rate of dimer formation and (-NH2 /S2) indicates the relative rates of deamidation to dimerization. The initial rates were normalized to that of the fibrinogen polypeptide Thr-Ile-Gly-Glu-Gly-Gln-Gln-His-His-Leu-Gly-Gly-Ala-Lys-Gln-Ala-Gly-Asp-Val. […]

Monomer Consumption d[S]/dt (rate of substrate utilization) | Crosslinking d(2[S-])/dt (rate of monomer incorporation into dimers) | Hydrolysis d[-NH3]/dt (hydrolysis = deamidation) | Hydrolysis % | Substance
-6.0 uM (monomer)/min | 3.0 uM (monomer)/min | 5.4 uM (monomer)/min | 64% | EGQHHLGAKQAG [-- EGQ-- HHL-- GAKQAG--]
-10.8 uM (monomer)/min | 9.8 uM (monomer)/min | 0.0 uM (monomer)/min | 0% | EGQHHLGGAKQA [-- EGQ-- HHLGGAKQA--]
-13.1 uM (monomer)/min | 11.2 uM (monomer)/min | 0.4 uM (monomer)/min | 3% | GEGQHHLGGAKQAG [-- GEGQ-- HHLGGAKQAG--]
-4.7 uM (monomer)/min | 4.9 uM (monomer)/min | 0.0 uM (monomer)/min | 0% | GQHHLGAKQ [-- GQ-- HHLG-- AKQ--]
-8.4 uM (monomer)/min | 8.4 uM (monomer)/min | -0.2 uM (monomer)/min | 0% | GQHHLGAKQA [-- GQ-- HHL-- GAKQA--]
-2.4 uM (monomer)/min | 1.8 uM (monomer)/min | 0.8 uM (monomer)/min | 31% | GQHHLGGAKA [-- GQ-- HHLGGAK-- A--]
-6.9 uM (monomer)/min | 6.2 uM (monomer)/min | 0.0 uM (monomer)/min | 0% | GQHHLGGAKQ [-- GQ-- HHLGGAKQ--, Gly-Gln-His-His-Leu-Gly-Gly-Ala-Lys-Gln]
-4.4 uM (monomer)/min | 4.4 uM (monomer)/min | 0.0 uM (monomer)/min | 0% | GQHHLGGAKQG [GQ-- HHLGGAKQG]
-9.8 uM (monomer)/min | 7.6 uM (monomer)/min | 0.0 uM (monomer)/min | 0% | GVGGQHHLGGAKQVP [GVGGQ-- HHLGGAKQVP]
-7.3 uM (monomer)/min | 5.6 uM (monomer)/min | 1.7 uM (monomer)/min | 23% | GVGVPGQHHLGGAKQGVGVP [GVGVPGQ-- HHLGGAKQGVGVP]
-12.5 uM (monomer)/min | 14.1 uM (monomer)/min | -1.4 uM (monomer)/min | 0% | IGEGQHHLGGAKQAGD [-- IGEGQ-- HHLGGAKQAGD--]
-5.2 uM (monomer)/min | 6.8 uM (monomer)/min | 1.2 uM (monomer)/min | 15% | LSQSKVG [LSQSKVG]
-8.4 uM (monomer)/min | 3.6 uM (monomer)/min | 5.4 uM (monomer)/min | 60% | TIGEGQHHLGAKQAGDV [TIGEGQ-- HHL-- GAKQAGDV]
-7.0 uM (monomer)/min | 4.0 uM (monomer)/min | 3.0 uM (monomer)/min | 43% | TIGEGQHHLGAKQAGDV [TIGEGQ-- HHLG-- AKQAGDV]
-10.0 uM (monomer)/min | 8.8 uM (monomer)/min | 1.4 uM (monomer)/min | 14% | TIGEGQHHLGGAKAGDV [TIGEGQ-- HHLGGAK-- AGDV]
-12.8 uM (monomer)/min | 11.4 uM (monomer)/min | 0.6 uM (monomer)/min | 5% | TIGEGQHHLGGAKQAGDV [TIGEGQ-- HHLGGAKQAGDV]
-20.0 uM (monomer)/min | 16.4 uM (monomer)/min | 5.2 uM (monomer)/min | 24% | TIGEGQQHHLGGAKQAGDV [TIGEGQQHHLGGAKQAGDV, Thr-Ile-Gly-Glu-Gly-Gln-Gln-His-His-Leu-Gly-Gly-Ala-Lys-Gln-Ala-Gly-Asp-Val, reference compound]
11.0 uM (monomer)/min | 11.0 uM (monomer)/min | 0.0 uM (monomer)/min | 0% | VGGQHHLGGAKQVPG [VGGQ-- HHLGGAKQVPG]
-18.0 uM (monomer)/min | 16.2 uM (monomer)/min | 0.0 uM (monomer)/min | 0% | VGQHHLGGAKVPG [VGQ-- HHLGGAKVPG]
-12.8 uM (monomer)/min | 11.8 uM (monomer)/min | 0.0 uM (monomer)/min | 0% | VPGVGGQHHLGGAKQVPGVG [VPGVGGQ-- HHLGGAKQVPGVG]
-32.0 uM (monomer)/min | 15.0 uM (monomer)/min | 12.5 uM (monomer)/min | 45% | VPGVGLSQSKVGVPGVG [VPGVGLSQSKVGVPGVG]
